Consider 1 compound from patent publication US5455278A (priority 1994, dated 1995).

The conditions of data set [1]: mice; cited from earlier work.
Data set [2] deals with mechanosensitive channels. Particulars: giant spheroplasts of E. coli, patch clamp. (In general: Patch clamp records ionic current or voltage across a cell membrane.)
A further data set deals with L. monocytogenes. In words: Effect of oxygen on the inhibitory activity of falcarindiol. Conditions: pH 7.5, 20° C.
Data set [3] in a line: Solubility of falcarindiol. In kind it is physicochemical.
The subject of another data set is Escherichia coli. In words: Inhibitory effect of falcarindiol on E. coli (optical density at 600nm, aerobic). In kind it is cell-based. Conditions: aerobic conditions, 20° C.
The next data set deals with Staphylococcus aureus. Briefly: Inhibitory effect of falcarindiol on S. aureus (optical density at 600nm, aerobic). In kind it is cell-based. Particulars: aerobic conditions, 20° C.
A further data set relates to Clostridium botulinum. In kind it is cell-based. Conditions: anaerobic conditions, 20° C.
The nature of data set [4]: Effectiveness of falcarindiol as inhibitor versus pH and aerobic conditions. In kind it is cell-based.
A further data set concerns Salmonella typhimurium. Briefly: Inhibitory effect of falcarindiol on S. typhimurium (optical density at 600nm, aerobic). In kind it is cell-based. Particulars: aerobic conditions, 20° C.
Data set [5] in a line: Inactivation of falcarindiol by heating. In kind it is physicochemical.

Each structure is given as a SMILES string.

For the compound `C=CC(O)C#CC#CC(O)C=CCCCCCCC` (stereo not shown) [falcarindiol], the LD50 entry in data set [1] was “about 100 mg/kg of body weight”. Moreover, the “activation of mechanosensitive channels” value in [2] is on record as “mechanosensitive channels were activated”. In the data set with L. monocytogenes (aerobic), the “inactivation of L. monocytogenes under aerobic conditions” value is “completely inactivated”. In addition, in the data set with L. monocytogenes (anaerobic), the “lag phase of L. monocytogenes under anaerobic conditions” value came to 15 h. Also, the “inhibition under aerobic versus anaerobic conditions” value with L. monocytogenes is recorded as “much greater under aerobic conditions”. Also, the “solubility in ethyl acetate” value in data set [3] is reported as “readily soluble”. In the data set on Escherichia coli, the “inhibition of E. coli” value is “inactive”. In addition, the “inhibition of S. aureus” value in the data set with Staphylococcus aureus is reported as “inhibited”. Further, in the data set on Clostridium botulinum, the “inhibition of C. botulinum” value is reported as “inhibited”. Moreover, the “activity under aerobic conditions” value in data set [4] (aerobic conditions) was “active under aerobic conditions”. In addition, the “pH (acidity) values at which it is effective” value in data set [4] (pH) was “above 5”. Besides, the “inhibition of S. typhimurium” value with Salmonella typhimurium is “inactive”. Moreover, the “stability to heating (activity)” value in [5] is “can be inactivated by heating”.
